Experimental data taken from publication PMC7294525 (Cell Research, 2020).
Like-named read-outs stand apart in the source and are kept apart here. Peptide text beside a SMILES is read from it. * marks the point of attachment. Cbz = O=C(OCc1ccccc1)*

Assays:
[1] = target: SARS-CoV-2 main protease (M^pro) (Severe acute respiratory syndrome coronavirus 2, UniProt P0DTD1); assay: biochemical; details: for inhibition at 20 µM: read-out: inhibition against M^pro
[2] = target: T1, EV-A71 2A protease (Human enterovirus 71, UniProt Q66478); assay: biochemical
T1 sequence (Q66478 863-1012 limits assumed): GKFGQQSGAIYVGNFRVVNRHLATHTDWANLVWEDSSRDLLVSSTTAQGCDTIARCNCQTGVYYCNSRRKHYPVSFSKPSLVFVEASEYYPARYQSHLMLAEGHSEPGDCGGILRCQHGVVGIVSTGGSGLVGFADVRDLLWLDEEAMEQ

[3] = target: EV-A71 3C protease (Human enterovirus 71, UniProt Q66478); assay: biochemical
Chain of EV-A71 3C protease (Q66478 1549-1731): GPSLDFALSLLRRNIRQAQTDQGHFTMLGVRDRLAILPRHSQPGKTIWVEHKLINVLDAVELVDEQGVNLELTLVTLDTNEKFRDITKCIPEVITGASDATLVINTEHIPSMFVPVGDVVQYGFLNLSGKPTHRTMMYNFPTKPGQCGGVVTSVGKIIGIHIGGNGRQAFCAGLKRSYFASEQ

[4] = target: SARS-CoV-2 M^pro (Severe acute respiratory syndrome coronavirus 2, UniProt P0DTD1); assay type: binding
[5] = test system: influenza virus A/California/07/2009 (H1N1); assay: Influenza A virus plaque reduction assay; assay type: cell-based; details: read-out: A/California/07/2009 (H1N1) antiviral activity (EC50)
[6] = test system: SARS-CoV 3CL^pro (M^pro); details: read-out: IC50 against SARS-CoV 3CL^pro (M^pro); cited from earlier work
[7] = 8 µM protein, 4 mM DTT, ligand 12.5 µM (62: 25 µM), up to two ligands per dimer

Cc1cccc(C)c1OCC(=O)N[C@@H](Cc1ccccc1)[C@@H](O)C[C@H](Cc1ccccc1)NC(=O)[C@H](C(C)C)N1CCCNC1=O [compound 10, lopinavir]
IC50 [1]: > 20 µM

COc1ccc2c(O[C@@H]3C[C@H]4C(=O)N[C@]5(C(=O)NS(=O)(=O)C6CC6)C[C@H]5/C=C\CCCCN(C)C(=O)[C@@H]4C3)cc(-c3nc(C(C)C)cs3)nc2c1C [compound 24, simeprevir]
inhibition at 20 µM [1]: > 60%

CC(C)(C)NC(=O)N[C@H](C(=O)N1C[C@H]2[C@@H]([C@H]1C(=O)NC(CC1CCC1)C(=O)C(N)=O)C2(C)C)C(C)(C)C (stereo partly shown) [compound 28, boceprevir]
inhibition at 20 µM [1]: > 60%
IC50 [2]: > 20 µM
IC50 [3]: > 20 µM
binding stoichiometry by native MS [4]: one drug per protomer
EC50 [5]: > 20 µM

CCCC[C@H](NC(=O)[C@@H]1[C@@H]2[C@H](CN1C(=O)[C@@H](NC(=O)NC1(CS(=O)(=O)C(C)(C)C)CCCCC1)C(C)(C)C)C2(C)C)C(=O)C(=O)NC1CC1 [compound 29, narlaprevir]
inhibition at 20 µM [1]: > 60%
IC50 [2]: > 20 µM
IC50 [3]: > 20 µM

CN(C)C(=O)COC(=O)Cc1ccc(OC(=O)c2ccc(NC(=N)N)cc2)cc1 [compound 39, camostat]
IC50 [1]: > 20 µM

CC(C)C[C@@H](C=O)NC(=O)[C@H](CC(C)C)NC(=O)[C@H](CC(C)C)NC(=O)OCc1ccccc1 [compound 43, MG-132] (Cbz-Leu-Leu-Leu-aldehyde)
inhibition at 20 µM [1]: > 60%
IC50 [2]: > 20 µM
IC50 [3]: > 20 µM

CC(C)[C@H](NC(=O)OCc1ccccc1)C(=O)N[C@H](C=O)Cc1ccccc1 [compound 57, calpain inhibitor III] (Cbz-Val-Phe-aldehyde)
IC50 [1]: > 20 µM

CCOC(=O)/C=C/[C@H](C[C@@H]1CCNC1=O)NC(=O)[C@@H](CC(=O)[C@@H](NC(=O)c1cc(C)on1)C(C)C)Cc1ccc(F)cc1 [compound 65, rupintrivir]
activity against EV-A71 2A protease [2]: inactive
activity against EV-A71 3C protease [3]: potent inhibition
IC50 [6]: > 100 µM

GC-376 [compound 64]
activity against EV-A71 2A protease [2]: inactive
activity against EV-A71 3C protease [3]: potent inhibition
EC50 ([5]; plaque assay): > 20 µM

calpain inhibitor II [compound 61]
binding stoichiometry by native MS [4, 7]: one drug per protomer
EC50 ([5]; plaque assay): > 20 µM

calpain inhibitor XII [compound 62]
binding stoichiometry by native MS [4, 7]: one drug per protomer
EC50 ([5]; plaque assay): > 20 µM
